According to US12595230B2, “Substituted 6,7-dihydro-5H-benzo[7]annulene compounds and their derivatives, processes for their preparation and therapeutic uses thereof” (Sanofi, priority 2020, dated 2026):

Molecular target: T1, ERα (Homo sapiens, UniProt P03372)
T1 construct: host or cells: MCF7
T1 sequence (P03372 1-595): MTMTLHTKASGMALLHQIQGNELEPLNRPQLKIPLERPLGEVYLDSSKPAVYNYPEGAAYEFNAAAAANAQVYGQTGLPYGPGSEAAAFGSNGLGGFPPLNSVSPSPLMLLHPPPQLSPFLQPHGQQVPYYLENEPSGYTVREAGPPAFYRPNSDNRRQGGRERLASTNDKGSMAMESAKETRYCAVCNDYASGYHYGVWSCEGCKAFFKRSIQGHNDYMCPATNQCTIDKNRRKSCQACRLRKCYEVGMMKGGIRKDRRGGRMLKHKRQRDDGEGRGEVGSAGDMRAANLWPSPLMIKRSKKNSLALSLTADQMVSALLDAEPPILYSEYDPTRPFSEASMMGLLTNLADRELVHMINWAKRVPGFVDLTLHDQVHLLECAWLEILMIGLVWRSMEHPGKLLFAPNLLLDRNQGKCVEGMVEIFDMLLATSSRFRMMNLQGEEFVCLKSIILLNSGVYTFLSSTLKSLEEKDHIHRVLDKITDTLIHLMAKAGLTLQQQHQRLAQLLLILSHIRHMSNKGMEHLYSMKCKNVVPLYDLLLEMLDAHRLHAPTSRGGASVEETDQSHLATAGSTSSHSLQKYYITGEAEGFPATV
Assay: Estrogen receptor degradation activity: breast cancer cell ERα in cell western assay (MCF7 cells)
Type: cell-based
Details: for % Degradation At 0.3 μM: 4 hours, relative to fulvestrant 0.1 μM positive control; for DC50: read-out: Degradation IC50
Protocol: Test: Estrogen Receptor Degradation Activity Said test involves measuring the in vitro degradation activity of the compounds of the Table 1a. The measurements of the degradation activities were made using a breast cancer cell ERα in cell western assay as described hereunder. MCF7 cells (ATCC) were seeded in 384 wells microplate (collagen coated) at a concentration of 10000 cells/30 μL per well in red phenol free MEM alpha medium (invitrogen) containing 5% charcoal dextran striped FBS. The following day, 9 points serial 1:5 dilution of each compound was added to the cells in 2.5p L at final concentrations ranging from 0.3-0.0000018 μM (in table 2), or 0.1 μM for fulvestrant (using as positive control). At 4 hours post compound addition the cells were fixed by adding 25 μL of formalin (final concentration 5% formalin containing 0.1% triton) for 10 minutes at room temperature and then washed twice with PBS. Then, 50 μL of LI-COR blocking buffer containing 0.1% Triton was added to plate for 30 minutes at room temperature. LI-COR blocking buffer was removed and cells were incubated overnight at cold room with 50 μL anti-ER rabbit monoclonal antibody (Thermo scientific MA1-39540) diluted at 1:1000 in LI-COR blocking buffer containing 0.1% tween-20. Wells which were treated with blocking buffer but no antibody were used as background control. Wells were washed twice with PBS (0.1% tween-20) and incubated at 37° C. for 60 minutes in LI-COR (0.1% tween-20) containing goat anti-rabbit antibody Alexa 488 (1:1000) and Syto-64 a DNA dye (2 μM final concentration). Cells were then washed 3 times in PBS and scanned in ACUMEN explorer (TTP-Labtech). Integrated intensities in the green fluorescence and red fluorescence were measured to determine the levels of ERα and DNA respectively. The degradation activity with respect to estrogen receptors in this test is given by the concentration which degrades 50% of the estrogen receptor (or IC50) in nM. […] DMSO−fulvestrant)).

[1] = 4 hours post compound addition, concentration which degrades 50% of the estrogen receptor

For `O=C(O)c1ccc2c(c1)CCCC(c1ncc(Cl)cc1F)=C2c1ccc(CC2CN(CCCF)C2)cc1` [Example 219, 8-(5-chloro-3-fluoropyridin-2-yl)-9-(4-((1-(3-fluoropropyl)azetidin-3-yl)methyl)phenyl)-6,7-dihydro-5H-benzo[7]annulene-3-carboxylic acid], the “% Degradation At 0.3 μM” value was 92% and the DC50 [1] was 6500 pM.
For `O=C(O)c1ccc2c(c1)CCCC(c1ccc(F)cc1Cl)=C2c1ccc(CC2(F)CN(CCCF)C2)cc1` [Example 242, 8-(2-chloro-4-fluorophenyl)-9-(4-((3-fluoro-1-(3-fluoropropyl)azetidin-3-yl)methyl)phenyl)-6,7-dihydro-5H-benzo[7]annulene-3-carboxylic acid], the “% Degradation At 0.3 μM” value was 78% and the DC50 [1] was 1700 pM.
With `O=C(O)c1ccc2c(c1)CCCC(C1CC3(C1)CC(F)(F)C3)=C2c1ccc(CC2CN(CCCF)C2)cc1` [Example 51, 8-(6,6-difluorospiro[3.3]heptan-2-yl)-9-(4-((1-(3-fluoropropyl)azetidin-3-yl)methyl)phenyl)-6,7-dihydro-5H-benzo[7]annulene-3-carboxylic acid] the “% Degradation At 0.3 μM” value was 89% and the DC50 [1] was 700 pM.
For `O=C(O)c1ccc2c(c1)CCCC(c1cccc(Cl)c1C(F)(F)F)=C2c1ccc(CC2CN(CCC(F)(F)F)C2)cc1` [Example 259, 8-(3-chloro-2-(trifluoromethyl)phenyl)-9-(4-((1-(3,3,3-trifluoropropyl)azetidin-3-yl)methyl)phenyl)-6,7-dihydro-5H-benzo[7]annulene-3-carboxylic acid], the “% Degradation At 0.3 μM” value was 87% and the DC50 [1] was 400 pM.
`Cc1cc(C2=C(c3ccc(CC4CN(CCCF)C4)cc3)c3ccc(C(=O)O)cc3CCC2)cn(C)c1=O` [Example 209, 8-(1,5-dimethyl-6-oxo-1,6-dihydropyridin-3-yl)-9-(4-((1-(3-fluoropropyl)azetidin-3-yl)methyl)phenyl)-6,7-dihydro-5H-benzo[7]annulene-3-carboxylic acid] was tested, and the “% Degradation At 0.3 μM” value was 100% and the DC50 [1] was 88700 pM.
`O=C(O)c1ccc2c(c1)CCCC(Cc1ccccc1)=C2c1ccc(CC2CN(CCCF)C2)cc1` [Example 311, 8-benzyl-9-(4-((1-(3-fluoropropyl)azetidin-3-yl)methyl)phenyl)-6,7-dihydro-5H-benzo[7]annulene-3-carboxylic acid] was tested, and the “% Degradation At 0.3 μM” value was 73% and the DC50 [1] was 9000 pM.
For `CC(C)C1CCc2cc(C(=O)O)ccc2C(c2ccc(CC3CN(CCCF)C3)cc2)=C1c1ccc(Cl)cc1Cl` (single isomer, unassigned) [Example 321, 8-(2,4-dichlorophenyl)-9-(4-((1-(3-fluoropropyl)azetidin-3-yl)methyl)phenyl)-7-isopropyl-6,7-dihydro-5H-benzo[7]annulene-3-carboxylic acid], the “% Degradation At 0.3 μM” value was 88% and the DC50 [1] was 500 pM.
In the case of `Cl.O=C(O)c1ccc2c(c1)CCCC(c1c(F)cc(F)cc1C(F)F)=C2c1ccc(CC2CN(CCCF)C2)cc1` [Example 284, 8-(2-(difluoromethyl)-4,6-difluorophenyl)-9-(4-((1-(3-fluoropropyl)azetidin-3-yl)methyl)phenyl)-6,7-dihydro-5H-benzo[7]annulene-3-carboxylic acid hydrochloride], the “% Degradation At 0.3 μM” value is reported as 96% and the DC50 [1] is reported as 300 pM.
For `COc1c(C(=O)O)ccc2c1CCCC(c1ccc(F)cc1C)=C2c1ccc(CC2CN(CCCF)C2)cc1` [Example 269, 8-(4-fluoro-2-methylphenyl)-9-(4-((1-(3-fluoropropyl)azetidin-3-yl)methyl)phenyl)-4-methoxy-6,7-dihydro-5H-benzo[7]annulene-3-carboxylic acid], the “% Degradation At 0.3 μM” value was 100% and the DC50 [1] was 180000 pM.
For `O=C(O)c1c(F)cc2c(c1F)CCCC(c1ccc(Cl)cc1Cl)=C2c1ccc(CC2CN(CCCF)C2)cc1` [Example 225, 8-(2,4-dichlorophenyl)-2,4-difluoro-9-(4-((1-(3-fluoropropyl)azetidin-3-yl)methyl)phenyl)-6,7-dihydro-5H-benzo[7]annulene-3-carboxylic acid], the “% Degradation At 0.3 μM” value was 82% and the DC50 [1] was 6600 pM.
With `O=C(O)c1ccc2c(c1)CCCC(c1cccc3c1CC3)=C2c1ccc(CC2CN(CCCF)C2)cc1` [Example 53, 8-(bicyclo[4.2.0]octa-1(6),2,4-trien-2-yl)-9-(4-((1-(3-fluoropropyl)azetidin-3-yl)methyl)phenyl)-6,7-dihydro-5H-benzo[7]annulene-3-carboxylic acid] the “% Degradation At 0.3 μM” value was 91% and the DC50 [1] was 400 pM.
In the case of `O=C(O)c1ccc2c(c1)CCCC(CC1CCC1)=C2c1ccc(CC2CN(CCCF)C2)cc1` [Example 294, 8-(cyclobutylmethyl)-9-(4-((1-(3-fluoropropyl)azetidin-3-yl)methyl)phenyl)-6,7-dihydro-5H-benzo[7]annulene-3-carboxylic acid], the “% Degradation At 0.3 μM” value is reported as 92% and the IC50 [1] is reported as 200 pM.
In the case of `Cl.O=C(O)c1ccc2c(c1)CCCC(C1CCC(F)(F)CC1)=C2c1ccc(CC2CN(CCCF)C2)cc1` [Example 4, 8-(4,4-Difluorocyclohexyl)-9-(4-((1-(3-fluoropropyl)azetidin-3-yl)methyl)phenyl)-6,7-dihydro-5H-benzo[7]Annulene-3-carboxylic Acid Hydrochloride], the “% Degradation At 0.3 μM” value is reported as 85% and the DC50 [1] is reported as 900 pM.
`O=C(O)c1ccc2c(c1)CCCC(c1cccc(CO)c1)=C2c1ccc(CC2CN(CCCF)C2)cc1` [Example 320, 9-(4-((1-(3-fluoropropyl)azetidin-3-yl)methyl)phenyl)-8-(3-(hydroxymethyl)phenyl)-6,7-dihydro-5H-benzo[7]annulene-3-carboxylic acid] was tested, and the “% Degradation At 0.3 μM” value was 80% and the DC50 [1] was 110000 pM.
For `O=C(O)c1ccc2c(c1)CCCC(c1cccc(F)c1C(F)F)=C2c1ccc(CC2CN(CCCF)C2)cc1` [Example 296, 8-(2-(difluoromethyl)-3-fluorophenyl)-9-(4-((1-(3-fluoropropyl)azetidin-3-yl)methyl)phenyl)-6,7-dihydro-5H-benzo[7]annulene-3-carboxylic acid], the “% Degradation At 0.3 μM” value was 91% and the DC50 [1] was 700 pM.
`CC(C)CC1=C(c2ccc(CC3CN(CCCF)C3)cc2)c2ccc(C(=O)O)cc2CCC1` [Example 37, 9-(4-((1-(3-fluoropropyl)azetidin-3-yl)methyl)phenyl)-8-isobutyl-6,7-dihydro-5H-benzo[7]annulene-3-carboxylic acid] was tested, and the “% Degradation At 0.3 μM” value was 87% and the DC50 [1] was 400 pM.
With `O=C(O)c1ccc2c(c1)CCCC(c1ccc(F)cc1F)=C2c1ccc(CC2CN(CCC(F)F)C2)cc1` [Example 281, 8-(2,4-difluorophenyl)-9-(4-((1-(3,3-difluoropropyl)azetidin-3-yl)methyl)phenyl)-6,7-dihydro-5H-benzo[7]annulene-3-carboxylic acid] the “% Degradation At 0.3 μM” value was 84% and the DC50 [1] was 400 pM.
With `Cc1cc2c(cc1C(=O)O)CCCC(c1ccc(Cl)cc1Cl)=C2c1ccc(CC2CN(CCCF)C2)cc1` [Example 249, 8-(2,4-dichlorophenyl)-9-(4-((1-(3-fluoropropyl)azetidin-3-yl)methyl)phenyl)-2-methyl-6,7-dihydro-5H-benzo[7]annulene-3-carboxylic acid] the “% Degradation At 0.3 μM” value was 90% and the DC50 [1] was 400 pM.
For `COc1cc(C2=C(c3ccc(CC4CN(CCCF)C4)cc3)c3ccc(C(=O)O)cc3CCC2)ccn1` [Example 21, 9-(4-((1-(3-fluoropropyl)azetidin-3-yl)methyl)phenyl)-8-(2-methoxypyridin-4-yl)-6,7-dihydro-5H-benzo[7]annulene-3-carboxylic acid], the “% Degradation At 0.3 μM” value was 89% and the DC50 [1] was 2100 pM.
With `O=C(O)c1ccc2c(c1Cl)CCCC(c1ccc(Cl)cc1Cl)=C2c1ccc(CC2CN(CCCF)C2)cc1` [Example 247, 4-chloro-8-(2,4-dichlorophenyl)-9-(4-((1-(3-fluoropropyl)azetidin-3-yl)methyl)phenyl)-6,7-dihydro-5H-benzo[7]annulene-3-carboxylic acid] the “% Degradation At 0.3 μM” value was 97% and the DC50 [1] was 1800 pM.
